Measured values reported in US20200102264A1, “MARMELIN ANALOGS AND METHODS OF USE IN CANCER TREATMENT” (THE UNIVERSITY OF KANSAS, priority 2014, published 2020).

What was measured:
Type in all cases: cell-based
[1] = system: Presenilin, Nicastrin, APH1 and PEN2; test: γ-secretase complex protein expression
From the text: The γ-secretase enzyme complex is made up of four proteins presenilin, nicastrin, APH-1 (anterior pharynx-defective 1), and PEN-2 (presenilin enhancer 2), all of which are essential for activity. Cleavage by the γ-secretase complex releases the Notch intracellular domain (NICD), which in turn translocates into the nucleus of the cells, interacts with the C promoter-binding factor-1 (CBF1) transcriptional cofactor and transactivates target genes, such as those in the hairy and enhancer of split (Hes) and Hes related with YRPW motif (Hey) family proteins. We determined whether the γ-secretase complex comprising of Presenilin, Nicastrin, APH1 and PEN2 is affected.

[2] = system: Cyclin D1, c-Myc, Akt phosphorylation, COX-2, VEGF; test: western blot analysis, cancer promoting genes; conditions: HCT116 and SW480 cells, 48 h
Experimental: (§1) The pathways for apoptosis were studied to determine whether the analogs were capable of inhibiting certain aspects of the pathways. […] HCT116 and SW480 cells treated with MRL, THB, THBCD, DHB, DHBCD and CD for 48 h and performed for western blot analysis. […] It is shown that THBCD also activates caspase 8 and caspase 9. Furthermore, THB and THBCD inhibit anti-apoptotic protein Bcl2 and BclXL levels. […] HCT116 and SW480 cells treated with MRL, THB, THBCD, DHB, DHBCD and CD for 48 h and performed for western blot analysis. Furthermore, THB and THBCD inhibit phosphorylation of Akt (FIG. 3).

SW480 cells = test: cell cycle analysis, SW480; conditions: SW480, Table 3
Experimental: The analogs were tested to determine the ability induce death of colon cancer cells.

cancer stem cells = test: colonosphere formation
Experimental: It was also determined the analogs inhibit colonosphere formation from cancer stem cells. […] The columns are 0, 10, 25, and 50 micromolar concentrations of the compounds labeled by rows.
The effect of the compounds on colonosphere formation was determined. […] Overall, the analogs have shown they can be used as chemotherapeutic agents against colon, pancreatic and bladder cancer.

[3] = system: 253JBV bladder cancer cells; test: hexoseaminidase cell proliferation assay, 253JBV
Experimental: (§2) Using hexoseaminidase assay, we determined the effect of the compounds on cell proliferation. […] The IC50 value at 48 hours is below 10 μM in all the cancer cell lines.

[4] = system: HCT116 colon cancer cells; test: hexoseaminidase cell proliferation assay, HCT116
From the text: Using hexoseaminidase assay, we determined the effect of the compounds on cell proliferation. […]
Using hexoseaminidase assay, we determined the effect of the compounds on cell proliferation. […] […] […] Overall, the analogs can be used as chemotherapeutic agents against colon and pancreatic cancer.

[5] = system: caspase 3, caspase 8, caspase 9, Bcl2, BclXL, cytochrome c; test: western blot analysis, apoptosis proteins; conditions: HCT116 and SW480 cells, 48 h
Experimental: as §1

[6] = system: MiaPaCa-2 pancreatic cancer cells; test: hexoseaminidase cell proliferation assay, MiaPaCa-2
Experimental: as §2
Using hexoseaminidase assay, we determined the effect of the compounds on cell proliferation. […] The MRL16 IC50 value at 48 hours is below 0.3 μM in Colon cancer cell lines. […] Overall, the analogs can be used as chemotherapeutic agents against colon and pancreatic cancer.

O=C(N/N=C/c1ccc(O)c(O)c1O)c1cc2ccccc2cc1O [MRL THB]
expression of Presenilin, Nicastrin, APH1 and PEN2 [1]: downregulation
COX-2 and VEGF expressions [2]: inhibit
cyclin D1 and c-Myc levels [2]: inhibit
phosphorylation of Akt [2]: inhibit
G0/G1 (%) (SW480 cells): 39.5%
G2M (%) (SW480 cells): 26.8%
S (%) (SW480 cells): 21.8%
SubG0 Dead Cells (%) (SW480 cells): 10.8%
colonosphere formation (cancer stem cells): significantly inhibited colonosphere formation
IC50 ([3]; 48 h): 38 µM
IC50 ([3]; 72 h): 15 µM
IC50 ([4]; HCT116, 24 h): > 50 µM
IC50 ([4]; HCT116, 48 h): 10 µM
IC50 ([4]; HCT116, 72 h): 7.5 µM
IC50 ([4]; HCT116, 72 h, listed as THB): 8 µM
anti-apoptotic protein Bcl2 and BclXL levels [5]: inhibit
cytochrome c [5]: inhibit
IC50 ([6]; MiaPaCa-2, 24 h): > 50 µM
IC50 ([6]; MiaPaCa-2, 48 h): 10 µM
IC50 ([6]; MiaPaCa-2, 72 h): 10 µM
IC50 ([6]; MiaPaCa-2, 72 h, listed as THB): 9 µM
